# According to PubChem BioAssay AID624373 (Broad Institute, 2012):
# Results filed as inconclusive are left out. The source made the active and inactive calls.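 The calls were made as follows: active = fitted curve reaches -35% activity change at up to twice the top valid dose, with every replicate test run active; inconclusive = replicate test runs disagree on the call; inactive = all runs inactive, no -35% crossing or signal rises.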
# Tested on: HEK293 LMP1-TES2 NF-kB luciferase reporter, 16 h
# Experiment: LMP1 TES2 NF-kB reporter inhibitors, dose response, cell-based, HEK293, luciferase, dry powder (AID 624373)
# Conditions: not given
row,SMILES,AC35 [µM]
1,O=C(CSc1nnc2c3ccccc3n(Cc3ccccc3)c2n1)NCc1ccco1,2.1
2,C[C@@H]1CN([C@@H](C)CO)C(=O)c2cc(NC(=O)Nc3ccc(C(F)(F)F)cc3)ccc2O[C@@H](C)CCCCO[C@@H]1CN(C)CC1CCCCC1,1.86
3,C/C(=N\NC(=S)N1CCCC1)c1ccccn1,0.262
4,c1ccc(Cn2c3ccccc3c3nnc(SCCN4CCCCC4)nc32)cc1,18.7
5,O=C1/C(=C/c2ccncc2)SC(=S)N1Cc1ccccc1,18.2
6,COc1ccc(NC(=O)c2ccc(OC(C)C(=O)O)cc2)cc1Cl (centres undefined),11.8
7,CC1CN(C(=O)CSc2nnc3c4ccccc4n(Cc4cccc(Cl)c4)c3n2)CCN1C(=O)c1ccccc1F (centres undefined),4.36
8,C/C(=N\NC(=S)Nc1ccccc1)c1ccccn1,0.313
9,C/C(=N\NC(=S)N1CCCCC1)c1cccc(C)n1,0.259
10,C/C(=N\NC(=S)Nc1ccccc1Cl)c1ccccn1,0.457
11,O=c1[nH]c(=O)n([C@H]2C[C@H](O)[C@@H](CO)O2)cc1C(F)(F)F,3.09
12,C/C(=N\NC(=S)N1CC2CCC(CC2)C1)c1cccc(C)n1,0.637
13,C/C(=N\NC(=S)N1CCCCC1)c1ccccn1,0.212
14,C/C(=N\NC(=S)N1CC2CCC(CC2)C1)c1ccccn1,1.18
15,Cc1ccc(S(=O)(=O)Nc2ccc3c(c2)C(=O)N([C@@H](C)CO)C[C@H](C)[C@@H](CN(C)C(=O)CCC(F)(F)F)OCCCC[C@H](C)O3)cc1,0.288
16,Nc1ccn([C@@H]2O[C@H](CO)[C@@H](O)C2O)c(=O)n1 (some centres undefined),8.54
17,CCCSc1nnc2c3ccccc3n(Cc3ccccc3)c2n1,3.4
18,C[C@@H]1CN([C@@H](C)CO)C(=O)c2cc(NC(=O)Nc3ccc4c(c3)OCO4)ccc2O[C@H]1CN(C)CC1CCCCC1,0.895
19,C[C@H](CO)N1C[C@H](C)[C@@H](CN(C)Cc2ccc(-c3ccccc3)cc2)Oc2ccc(NC(=O)Nc3cccc4ccccc34)cc2CC1=O,2.36
20,COc1ccc2[nH]c(C(=O)N/N=C/c3ccc(O)cc3O)cc2c1,3.63
21,C[C@H]1CCCCO[C@@H](CN(C)CC2CCCCC2)[C@@H](C)CN([C@@H](C)CO)C(=O)c2cc(NC(=O)C3CCCCC3)ccc2O1,9.98

row,SMILES,AC35 [µM]
1,COc1ccccc1[C@]1(C)ON(c2ccccc2C(F)(F)F)C1=O,8.16
2,COCCCNC(=O)C(C)Sc1nnc2c3cc(C)ccc3n(Cc3ccccc3F)c2n1 (centres undefined),5.01
3,Cc1ccnc(NC(=O)c2ccc(C(=O)c3ccccc3)cc2)c1,11
4,CC12CCC3C(CC=C4CC(O)CCC43CO)C1CCC2OC(=O)c1ccccc1 (centres undefined),3.06
5,C[C@H](CO)N1C[C@H](C)[C@H](CN(C)C(=O)Nc2ccc(C(F)(F)F)cc2)OCCCC[C@H](C)Oc2ccc(NC(=O)Nc3ccc(F)cc3)cc2C1=O,5.4
6,C[C@@H]1CCCCO[C@H](CN(C)C(=O)NC2CCCCC2)[C@H](C)CN([C@@H](C)CO)C(=O)c2cc(NC(=O)C3CCCCC3)ccc2O1,6.42
7,C/C(=N\NC(=S)Nc1ccc(C)cc1)c1ccccn1,0.142
8,C=C1C[C@]23C[C@@]1(O)CC[C@@H]2c1cccc(C)c1[C@@H]3C(=O)O,4.34
9,CCN1CCN(C(c2cccnc2)c2cc(Cl)c3cccnc3c2O)CC1 (centres undefined),3.32
10,C[C@H](CO)N1C[C@H](C)[C@@H](CN(C)CC2CC2)OCCCC[C@H](C)Oc2ccc(NC(=O)Nc3cccc4ccccc34)cc2C1=O,0.351
11,S=C(NCc1ccccn1)N/N=C/c1ccccn1,1.01
12,CSC(=S)N/N=C(\C)c1cccc(C)n1,3.01
13,Cc1ccc(NC(=O)C2CCN(S(=O)(=O)c3ccc4c(c3)NC(=O)C(C)S4)CC2)cc1Cl (centres undefined),1.65
14,CC(C)=CCN(C(=O)C#Cc1ccccc1)[C@H](CO)c1ccccc1,1.88
15,CCC(Sc1nnc2c3ccccc3n(Cc3ccc(Br)cc3)c2n1)C(=O)NCCCN1CCOCC1 (centres undefined),3.2
16,Fc1ccc2c(c1)c1nnc(SCCN3CCOCC3)nc1n2Cc1ccccc1,3.94
17,C/C(=N\NC(=S)N1CCCCCC1)c1ccccn1,0.216
18,C/C=C/C/C=C/CCC(=O)[C@H]1O[C@H]1C(N)=O,12
19,C/C(=N\NC(=S)Nc1cccc(Cl)c1)c1ccccn1,0.314
20,C/C(=N\NC(=S)N1CC2CCC(CC2)C1)c1ccncn1,2.5
21,C/C(=N\NC(=S)N1CCC1)c1ccccn1,0.679

# Tested on: not listed separately
# Experiment: as above
# Conditions: HEK293 LMP1-TES2 NF-kB luciferase reporter, 16 h; at 15 µM (top of the series)
row,SMILES,"activity change, negative = inhibition"
1,C=C1C[C@]23C[C@@]1(O)CC[C@H]2[C@@]12C=C[C@H](O)[C@@](C)(C(=O)O1)[C@H]2[C@@H]3C(=O)O,2.14% (inactive)

# Same assay, conditions: HEK293 LMP1-TES2 NF-kB luciferase reporter, 16 h; at 26 µM (top of the series)
row,SMILES,"activity change, negative = inhibition"
1,Cc1ccc(S(=O)(=O)NC(CC(C)C)C(=O)NCC(c2ccco2)N2CCCCC2)cc1 (centres undefined),-8.46% (inactive)
2,Cc1cc(NC(=O)c2ccc3c(c2)OCCO3)no1,1.38% (inactive)
3,C[C@@H]1CCCCO[C@H](CN(C)CC2CCCCC2)[C@H](C)CN([C@@H](C)CO)C(=O)c2cc(NC(=O)NC3CCCCC3)ccc2O1,56.5% (inactive)
4,O=C(Nc1cc(C(F)(F)F)cc(C(F)(F)F)c1)Nc1cnn(-c2ccc([N+](=O)[O-])cc2)c1C(F)(F)F,10.5% (inactive)
5,CNC[C@@H]1Oc2ccc(NS(=O)(=O)c3cn(C)cn3)cc2CC(=O)N([C@H](C)CO)C[C@@H]1C,37.6% (inactive)
6,C[C@@H]1CCCCO[C@@H](CN(C)Cc2ccccc2)[C@H](C)CN([C@H](C)CO)C(=O)c2cc(NC(=O)Nc3ccc4c(c3)OCO4)ccc2O1,10.6% (inactive)
7,Oc1cccc(C(Nc2nccs2)c2ccc3cccnc3c2O)c1 (centres undefined),33.9% (inactive)
8,COc1ccc(-c2csc3ncnc(NCCN4CCOCC4)c23)cc1,30.3% (inactive)
9,CCc1sc(C(=O)Nc2ncccc2O)cc1C,-12.6% (inactive)
10,C[C@H](CO)N1C[C@H](C)[C@@H](CN(C)CC2CCCCC2)OCCCC[C@H](C)Oc2ccc(NC(=O)Nc3cccc4ccccc34)cc2C1=O,27.7% (inactive)
11,COc1ccc(-c2cc3nc4n(c(=O)c3s2)CCC4)cc1,23.4% (inactive)
12,Cc1c(NC(=O)c2cccc(NC(=O)COc3ccccc3C#N)c2)c(=O)n(-c2ccccc2)n1C,23.3% (inactive)
13,C[C@@H]1CN([C@@H](C)CO)C(=O)c2cc(NC(=O)Nc3ccc(C(F)(F)F)cc3)ccc2O[C@@H](C)CCCCO[C@H]1CN(C)Cc1ccc(C(F)(F)F)cc1,52.3% (inactive)
14,c1ccc(-c2cn3c4c(sc3n2)CCCC4)cc1,7.22% (inactive)
15,CCc1ccc(/C=C2\SC(=S)N(CCCC(=O)Nc3ccccn3)C2=O)cc1,12.1% (inactive)
16,C[C@@H]1CCCCO[C@H](CN(C)C(=O)c2ccccc2)[C@H](C)CN([C@@H](C)CO)C(=O)c2cc(NC(=O)Nc3ccc(F)cc3)ccc2O1,4.26% (inactive)
